Where two headings read alike, the source gives them in different places. *1 amine or outer side, *2 acyl side, *3 side chain or, on linkers, in order; H or OH if unused. Where a SMILES comes first, the peptide text is derived from it. Bridges are numbered along the chain shown (N, C = ends). [ ]: non-standard residue; d: D form. The star is where a group is joined. hTyr(3S-OH,4S-OH,3'-OSO3H) = N[C@H](C(=O)O)[C@H](O)[C@@H](O)c1ccc(O)c(OS(=O)(=O)O)c1; Orn(4R-OH,5R-OH) = O=C([C@H](C[C@@H](O)[C@@H](O)N[*:3])N[*:1])[*:2]; Pro(3S-OH,4S-Me) = C[C@H]1CN[C@H](C(=O)O)[C@H]1O; X1 = CCCCCOc1ccc(-c2cc(-c3ccc(C(=O)*)cc3)no2)cc1; Gln(3R-OH) = NC(=O)C[C@@H](O)[C@H](N)C(=O)O; Hyp = O=C(O)[C@@H]1C[C@@H](O)CN1
Experiment: Micafungin concentrations in cerebrospinal fluid of infants with Candida meningitis (HPLC)
Assay type: in vivo
Settings: human, iv; for Kp at 1 h / Kp at 8 h / Kp: CSF (ratio to plasma); for Kp at 1 h: read-out: CSF/plasma ratio after 1 h; for Kp at 8 h: read-out: CSF/plasma ratio after 8 h; for Kp: read-out: CSF/plasma ratio before infusion; for level at 1 h / level at 8 h / level at -1 h: cerebrospinal fluid, HPLC; for level at 1 h: read-out: CSF values after 1 h; for level at 8 h: read-out: CSF values after 8 h; for level at -1 h: read-out: CSF values before infusion
Method: Micafungin plasma and CSF concentrations were measured 1 h before and 1, 2, and 8 h after the end of the infusion. Sampling overlapped with those required for the clinical monitoring of these critical children. Blood samples were collected via heel puncture, using 0.3 mL capillary microtubes with EDTA, between Days 3 and 10 of micafungin therapy. Five minutes prior to sampling, the heel was warmed with a hot compress (40 °C), and puncture was performed using a Gentleheel incision device (Cardinal Health, Dublin, OH, USA) at alternate sites per timepoint. Blood picked up was centrifuged at 3000× g, and the plasma residue was stored at 4 °C until analyzed within 6 h or frozen at −20 °C and analyzed within 7 days, as previously reported. Drug concentrations were measured via high-performance liquid chromatography (HPLC). An HPLC method with a diode array detector was validated to fine-tune the measurement on small amounts of plasma (0.3 mL whole blood). […]

[1] = 7 mg/kg/day, Patient 1, dose 7 mg/kg/day iv
[2] = 8 mg/kg/day, Patient 3, dose 8 mg/kg/day iv
[3] = 10 mg/kg/day, Patient 1, dose 10 mg/kg/day iv
[4] = 10 mg/kg/day, Patient 2, dose 10 mg/kg/day iv
[5] = 15 mg/kg/day, Patient 2, dose 15 mg/kg/day iv

`CCCCCOc1ccc(-c2cc(-c3ccc(C(=O)N[C@H]4C[C@@H](O)[C@@H](O)NC(=O)[C@@H]5[C@@H](O)[C@@H](C)CN5C(=O)[C@H]([C@H](O)CC(N)=O)NC(=O)[C@H]([C@H](O)[C@@H](O)c5ccc(O)c(OS(=O)(=O)O)c5)NC(=O)[C@@H]5C[C@@H](O)CN5C(=O)[C@H]([C@@H](C)O)NC4=O)cc3)no2)cc1` [micafungin] (X1-[Orn(4R-OH,5R-OH)]T[Hyp][hTyr(3S-OH,4S-OH,3'-OSO3H)][Gln(3R-OH)][Pro(3S-OH,4S-Me)]; lactam 1-C) gave a Kp at 1 h [1] of 0.01, a Kp at 8 h [1] of 0.02 and a Kp [1] of 0.05. For the same molecule, the Kp at 1 h [2] was 0.06, the Kp at 8 h [2] was 0.08 and the Kp [2] was 0.22. For the same molecule, the Kp at 1 h [3] was 0.06, the Kp at 8 h [3] was 0.19 and the Kp [3] was 0.38. For the same molecule, the Kp at 1 h [4] was 0.03, the Kp at 8 h [4] was 0.03 and the Kp [4] was 0.06. It also gave a Kp at 1 h [5] of 0.05, a Kp at 8 h [5] of 0.07 and a Kp [5] of 0.16. It also gave a level at 1 h [1] of 150 ng/mL, a level at 8 h [1] of 150 ng/mL and a level at -1 h [1] of 150 ng/mL. It also gave a level at 1 h [2] of 1700 ng/mL, a level at 8 h [2] of 1300 ng/mL and a level at -1 h [2] of 2000 ng/mL. It also gave a level at 1 h [3] of 1230 ng/mL, a level at 8 h [3] of 1230 ng/mL and a level at -1 h [3] of 1230 ng/mL. The level at 1 h [4] was 500 ng/mL, the level at 8 h [4] was 300 ng/mL and the level at -1 h [4] was 400 ng/mL. For the same molecule, the level at 1 h [5] was 1100 ng/mL, the level at 8 h [5] was 800 ng/mL and the level at -1 h [5] was 900 ng/mL.
